Results reported in US20220132852A1, “PESTICIDALLY ACTIVE HETEROCYCLIC DERIVATIVES WITH SULFUR CONTAINING SUBSTITUENTS” (SYNGENTA CROP PROTECTION AG, priority 2019, published 2022).

Assays:
Type in all cases: in vivo
[1] = test system: Spodoptera littoralis (Egyptian Cotton Leaf Worm); assay: Example B6: Activity against Spodoptera littoralis (Egyptian cotton leaf worm); conditions: foliar, 72 h, application rate 200 ppm, L1 larvae on sprayed cotton leaf discs, 3 days after infestation, read-out: control (mortality, anti-feeding effect or growth inhibition)
Description: Example B6: Activity Against Spodoptera littoralis (Egyptian Cotton Leaf Worm)
Cotton leaf discs were placed onto agar in 24-well microtiter plates and sprayed with aqueous test solutions prepared from 10′000 ppm DMSO stock solutions. After drying the leaf discs were infested with five L1 larvae. The samples were assessed for mortality, anti-feeding effect, and growth inhibition in comparison to untreated samples 3 days after infestation. Control of Spodoptera littoralis by a test sample is given when at least one of the categories mortality, anti-feedant effect, and growth inhibition is higher than the untreated sample.

[2] = test system: Euschistus heros (Neotropical Brown Stink Bug); assay: Example B2: Activity against Euschistus heros (neotropical brown stink bug), sprayed soybean leaves; conditions: 120 h, application rate 200 ppm, N2 nymphs on sprayed soybean leaves, 5 days after infestation, read-out: effect in at least one of the two categories (mortality or growth inhibition)
Description: Example B2: Activity Against Euschistus heros (Neotropical Brown Stink Bug)
Soybean leaves on agar in 24-well microtiter plates were sprayed with aqueous test solutions prepared from 10′000 ppm DMSO stock solutions. After drying the leaves were infested with N2 nymphs. The samples were assessed for mortality and growth inhibition in comparison to untreated samples 5 days after infestation.

[3] = test system: Plutella xylostella (Diamond Back Moth); assay: Example B3: Activity against Plutella xylostella (diamond back moth), artificial diet; conditions: 192 h, application rate 200 ppm, eggs on artificial diet, 8 days after infestation, read-out: effect in at least one of the two categories (mortality or growth inhibition)
Description: Example B3: Activity Against Plutella xylostella (Diamond Back Moth)
24-well microtiter plates with artificial diet were treated with aqueous test solutions prepared from 10′000 ppm DMSO stock solutions by pipetting. After drying, Plutella eggs were pipetted through a plastic stencil onto a gel blotting paper and the plate was closed with it. The samples were assessed for mortality and growth inhibition in comparison to untreated samples 8 days after infestation. The following compounds gave an effect of at least 80% in at least one of the two categories (mortality or growth inhibition) at an application rate of 200 ppm: P2, P4, P5, P6, P8, P9, P10, P11, P12, P14, P15, P16, P17, P18, P19, P20, P21, P22, P23, P24, P25, P26, P27, P28, P29, P30, P31, P32, P33, P34, P35, P36, P38, P39, P40, P42, P45, P46, P47, P49, P50, P51, P52.

[4] = test system: Diabrotica balteata (Corn Root Worm); assay: Example B1: Activity against Diabrotica balteata (corn root worm), sprayed maize sprouts; conditions: 96 h, application rate 200 ppm, L2 larvae on sprayed maize sprouts, 4 days after infestation, read-out: effect in at least one of the two categories (mortality or growth inhibition)
Description: Example B1: Activity Against Diabrotica balteata (Corn Root Worm)
Maize sprouts placed onto an agar layer in 24-well microtiter plates were treated with aqueous test solutions prepared from 10′000 ppm DMSO stock solutions by spraying. After drying, the plates were infested with L2 larvae (6 to 10 per well). The samples were assessed for mortality and growth inhibition in comparison to untreated samples 4 days after infestation.

[5] = test system: Frankliniella occidentalis (Western Flower Thrips); assay: Example B8: Activity against Frankliniella occidentalis (western flower thrips); conditions: foliar, 168 h, application rate 200 ppm, sprayed sunflower leaf discs, mixed ages, 7 days after infestation
Description: Example B8: Activity Against Frankliniella occidentalis (Western Flower Thrips)
Sunflower leaf discs were placed on agar in 24-well microtiter plates and sprayed with aqueous test solutions prepared from […] stock solutions. After drying the leaf discs were infested with a Frankliniella population of mixed ages. The samples were assessed for mortality 7 days after infestation.

[6] = test system: Myzus persicae (Green Peach Aphid); assay: whole plant or invertebrate; conditions: foliar, 144 h, application rate 200 ppm, sprayed sunflower leaf discs, mixed ages, 6 days after infestation
Description: Example B4: Activity Against Myzus persicae (Green Peach Aphid) Feeding/Contact Activity
Sunflower leaf discs were placed onto agar in a 24-well microtiter plate and sprayed with aqueous test solutions prepared from 10′000 ppm DMSO stock solutions. After drying, the leaf discs were infested with an aphid population of mixed ages. The samples were assessed for mortality 6 days after infestation.

[7] = test system: Myzus persicae (Green Peach Aphid); assay: Example B5: Activity against Myzus persicae (green peach aphid), systemic activity; conditions: 144 h, test rate 24 ppm, roots of pea seedlings in test solution, mixed ages, 6 days
Description: Example B5: Activity Against Myzus persicae (Green Peach Aphid) Systemic Activity
Roots of pea seedlings infested with an aphid population of mixed ages were placed directly into aqueous test solutions prepared from 10′000 DMSO stock solutions. The samples were assessed for mortality 6 days after placing seedlings into test solutions.

CCSc1cc(C2(C#N)CC2)cnc1-c1cc2cnn(CC(F)(F)C(F)(F)F)c2cn1 [Compound P10, 1-[5-ethylsulfanyl-6-[1-(2,2,3,3,3-pentafluoropropyl)pyrazolo[3,4-c]pyridin-5-yl]-3-pyridyl]cyclopropanecarbonitrile]
≥ 80%: percent control (mortality, anti-feedant effect or growth inhibition) at 200 ppm [1] | percent effect (mortality or growth inhibition) at 200 ppm [2] | percent effect (mortality or growth inhibition) at 200 ppm [3] | percent effect (mortality or growth inhibition) at 200 ppm [4] | mortality at 200 ppm [5]

CCS(=O)(=O)c1ccc(N(C)C(C)=O)nc1-c1cc2cnn(CC(F)(F)C(F)(F)F)c2cn1 [Compound P12, N-[5-ethylsulfonyl-6-[1-(2,2,3,3,3-pentafluoropropyl)pyrazolo[3,4-c]pyridin-5-yl]-2-pyridyl]-N-methyl-acetamide]
≥ 80%: percent control (mortality, anti-feedant effect or growth inhibition) at 200 ppm [1] | percent effect (mortality or growth inhibition) at 200 ppm [2] | percent effect (mortality or growth inhibition) at 200 ppm [3] | percent effect (mortality or growth inhibition) at 200 ppm [4] | mortality at 200 ppm [6] | mortality at 24 ppm [7]

CCS(=O)(=O)c1cc(C(C)(C)C#N)cnc1-c1cc2ncn(CC(F)(F)C(F)(F)F)c2cn1 [Compound P40, 2-[5-ethylsulfonyl-6-[3-(2,2,3,3,3-pentafluoropropyl)imidazo[4,5-c]pyridin-6-yl]-3-pyridyl]-2-methyl-propanenitrile]
≥ 80%: percent control (mortality, anti-feedant effect or growth inhibition) at 200 ppm [1] | percent effect (mortality or growth inhibition) at 200 ppm [2] | percent effect (mortality or growth inhibition) at 200 ppm [3] | percent effect (mortality or growth inhibition) at 200 ppm [4] | mortality at 200 ppm [6] | mortality at 24 ppm [7]

CCSc1cc(C(C)(C)C#N)cnc1-c1cc2ncn(CC(F)(F)C(F)(F)F)c2cn1 [Compound P47, 2-[5-ethylsulfanyl-6-[3-(2,2,3,3,3-pentafluoropropyl)imidazo[4,5-c]pyridin-6-yl]-3-pyridyl]-2-methyl-propanenitrile]
≥ 80%: percent effect (mortality or growth inhibition) at 200 ppm [2] | percent effect (mortality or growth inhibition) at 200 ppm [3] | percent effect (mortality or growth inhibition) at 200 ppm [4] | mortality at 200 ppm [5]

CCS(=O)(=O)c1cc(C2(C#N)CC2)cnc1-c1cc2ncn(CC(F)(F)C(F)(F)F)c2cn1 [Compound P34, 1-[5-ethylsulfonyl-6-[3-(2,2,3,3,3-pentafluoropropyl)imidazo [4,5-c]pyridin-6-yl]-3-pyridyl]cyclopropane-carbonitrile]
≥ 80%: percent effect (mortality or growth inhibition) at 200 ppm [2] | percent effect (mortality or growth inhibition) at 200 ppm [3] | percent effect (mortality or growth inhibition) at 200 ppm [4] | mortality at 200 ppm [6] | mortality at 24 ppm [7]

CCS(=O)(=O)c1cc(N(C)C(C)=O)cnc1-c1cc2cnn(CC(F)(F)C(F)(F)F)c2cn1 [Compound P2, N-[5-ethylsulfonyl-6-[1-(2,2,3,3,3-pentafluoropropyl)pyrazolo[3,4-c]pyridin-5-yl]-3-pyridyl]-N-methyl-acetamide]
≥ 80%: percent control (mortality, anti-feedant effect or growth inhibition) at 200 ppm [1] | percent effect (mortality or growth inhibition) at 200 ppm [2] | percent effect (mortality or growth inhibition) at 200 ppm [3] | percent effect (mortality or growth inhibition) at 200 ppm [4] | mortality at 200 ppm [6] | mortality at 24 ppm [7]

CCS(=O)(=O)c1cccnc1-c1cc2cnn(CC(F)(F)C(F)(F)F)c2cn1 [Compound P4, 5-(3-ethylsulfonyl-2-pyridyl)-1-(2,2,3,3,3-pentafluoropropyl)pyrazolo[3,4-c]pyridine]
≥ 80%: percent control (mortality, anti-feedant effect or growth inhibition) at 200 ppm [1] | percent effect (mortality or growth inhibition) at 200 ppm [2] | percent effect (mortality or growth inhibition) at 200 ppm [3] | percent effect (mortality or growth inhibition) at 200 ppm [4] | mortality at 200 ppm [6] | mortality at 24 ppm [7]
